The test system of this test is T-47D spheroids with HUVEC/MSC, viability. The test is described as follows: Anticancer human tumor T-47D cell line growth inhibition [PI3K].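 For all read-outs here: spheroids exposed to agents for seven days before reading.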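 For viability, T/C: percent of DMSO vehicle control luminescence so 100% = untreated growth.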 The following applies: for viability, T/C: stronger effect = lower value. From the text:
Combinatorial screen of targeted agents with the PI3K inhibitors inavolisib, alpelisib, duvelisib, and copanlisib in multi-cell type tumor spheroids
A high-throughput screen of multi-cell type tumor spheroids was designed to identify active combinations of targeted small molecules and PI3K pathway inhibitors. Complex spheroids include a stromal component modeled by human endothelial cells (HUVEC) and fibroblasts modeled by human mesenchymal stem cells (MSCs). The concentration ranges selected for each drug and investigational agent were based upon clinically achievable concentrations if the clinical Cmax of the agent was known.
Compounds. The drugs and investigational agents: inavolisib (NSC800729), alpelisib (NSC765974), duvelisib (NSC772469), copanlisib (NSC816437), ipatasertib (NSC767898), afuresertib (NSC778305), talazoparib (NSC767125), sapanisertib (NSC764658), selumetinib (NSC741078), tovorafenib (DAY101, NSC766906), vemurafenib (NSC761431), ravoxertinib (NSC781343), sotorasib (NSC818433), MRTX1133 (NSC 836407), abemaciclib (NSC 768073), palbociclib (NSC758247), venetoclax (NSC 766270), SY5609 (NSC837396), enzalutamide (NSC755605), and darolutamide (NSC825331), were obtained from the National Cancer Institute (NCI) Developmental Therapeutics Program Chemical Repository. The FDA-approved anticancer drug set is available from the NCI Developmental Therapeutics Program. […] The stock solutions were prepared in dimethyl sulfoxide (DMSO, Sigma-Aldrich, St. Louis, MO, cat. D2650) at 800-fold the tested concentration and stored at -70 degrees C prior to their use. All drugs and investigational agents were tested over a range starting from a high concentration at or near the clinical Cmax and decreasing in half-log increments. If the clinical Cmax for an agent had not been determined, the highest concentration tested was 10 microM.
Cell Culture. All cells were maintained in an incubator at 37 degrees C and 5% CO2 with 95% humidity. The PDC lines were cultured according to standard operating procedures established by the NCI PDMR (https://pdmr.cancer.gov/sops/default.htm). All PDCs were thawed and cultured in Matrigel-coated flasks prepared with a working solution of 1X Ham's F-12 nutrient mix, without supplementation (Invitrogen, Waltham, MA, cat. 11765054), 100 U/mL penicillin-streptomycin (Invitrogen, cat. 15140122), and 2.5% Matrigel (Corning Inc., Corning, NY, cat. 354248) for the first three passages. The 354836-022-R-J1-PDC, 475296-252-R-J1-PDC, and 997726-040-R-J2-PDC lines were cultured in 6A media, which includes advanced DMEM/F-12 (Thermo Fisher Scientific, cat. 12634028), 10 mM HEPES (Thermo Fisher Scientific, cat. 15630080), 1X GlutaMAX supplement (Thermo Fisher Scientific, cat. 35050061), 0.1 mg/mL primocin (InvivoGen, San Diego, CA, cat. ant-pm-2), 10% defined fetal bovine serum, heat inactivated (HyClone Laboratories Inc., Logan, UT, cat. SH30070.03HI), 50% L-WRN conditioned media (ATCC, cat. CRL-3276), 1.25 mM N-Acetyl-L-cysteine (Sigma-Aldrich, cat. A9165), 10 mM nicotinamide (Sigma-Aldrich, cat. N0636), 1X B-27 supplement (Thermo Fisher Scientific, cat. 17504044), 1X N-2 supplement (Thermo Fisher Scientific, cat. 17502048), and 10 microM Y-27632 dihydrochloride (Tocris Bioscience, Bristol, United Kingdom, cat. 1254). The 624824-186-R-J2-PDC line was cultured in 6C/Colon 1B media, which includes all 6A media components plus 50 ng/mL human EGF recombinant protein (Thermo Fisher Scientific, cat. PHG0311). […]

[1] abbreviates: curve of first compound, second compound 0.00316 µM.
The mark [2] stands for this setting: curve of first compound, second compound 0.01 µM.
[3] abbreviates: curve of first compound, second compound 0.0316 µM.
The mark [4] stands for this setting: curve of first compound, second compound 0.1 µM.
Setting [5] is: curve of first compound, second compound 0.316 µM.
Where [6] appears, read: curve of first compound, second compound 1 µM.
Setting [7] is: second compound 0.00316 µM, first compound 0.0316 µM.
The mark [8] stands for this setting: second compound 0.00316 µM, first compound 0.1 µM.
The mark [9] stands for this setting: second compound 0.00316 µM, first compound 0.316 µM.
Where [10] appears, read: second compound 0.00316 µM, first compound 1 µM.
Setting [11] is: second compound 0.00316 µM, first compound 3.16 µM.
[12] abbreviates: second compound 0.00316 µM, first compound 10 µM.
The mark [13] stands for this setting: second compound 0.01 µM, first compound 0.0316 µM.
Setting [14] is: second compound 0.01 µM, first compound 0.1 µM.
Setting [15] is: second compound 0.01 µM, first compound 0.316 µM.
[16] abbreviates: second compound 0.01 µM, first compound 1 µM.
The mark [17] stands for this setting: second compound 0.01 µM, first compound 3.16 µM.
Where [18] appears, read: second compound 0.01 µM, first compound 10 µM.
Where [19] appears, read: second compound 0.0316 µM, first compound 0.0316 µM.
The mark [20] stands for this setting: second compound 0.0316 µM, first compound 0.1 µM.
The mark [21] stands for this setting: second compound 0.0316 µM, first compound 0.316 µM.
The mark [22] stands for this setting: second compound 0.0316 µM, first compound 1 µM.
The mark [23] stands for this setting: second compound 0.0316 µM, first compound 3.16 µM.
Setting [24] is: second compound 0.0316 µM, first compound 10 µM.
The mark [25] stands for this setting: second compound 0.1 µM, first compound 0.0316 µM.
[26] abbreviates: second compound 0.1 µM, first compound 0.1 µM.
The mark [27] stands for this setting: second compound 0.1 µM, first compound 0.316 µM.
The mark [28] stands for this setting: second compound 0.1 µM, first compound 1 µM.
Setting [29] is: second compound 0.1 µM, first compound 3.16 µM.
Setting [30] is: second compound 0.1 µM, first compound 10 µM.
[31] abbreviates: second compound 0.316 µM, first compound 0.0316 µM.
Setting [32] is: second compound 0.316 µM, first compound 0.1 µM.
Where [33] appears, read: second compound 0.316 µM, first compound 0.316 µM.
Setting [34] is: second compound 0.316 µM, first compound 1 µM.
Setting [35] is: second compound 0.316 µM, first compound 3.16 µM.
Setting [36] is: second compound 0.316 µM, first compound 10 µM.
The mark [37] stands for this setting: second compound 1 µM, first compound 0.0316 µM.
[38] abbreviates: second compound 1 µM, first compound 0.1 µM.
The mark [39] stands for this setting: second compound 1 µM, first compound 0.316 µM.
Setting [40] is: second compound 1 µM, first compound 1 µM.
Setting [41] is: second compound 1 µM, first compound 3.16 µM.
Where [42] appears, read: second compound 1 µM, first compound 10 µM.

As a reminder, the IC50 is the concentration that gives 50% inhibition. As a reminder, the viability, T/C is the result in the treated group divided by that in the control group, in per cent. Turning to `CCCS(=O)(=O)Nc1ccc(F)c(C(=O)c2c[nH]c3ncc(-c4ccc(Cl)cc4)cc23)c1F` + CC(Nc1ccc2c(c1)OCCn1cc(N3C(=O)OCC3C(F)F)nc1-2)C(N)=O, the concentration for half-maximal inhibition (IC50) was 9.16 µM under setting [1]; 9.58 µM under setting [2]; 8.53 µM under setting [3]; 6.95 µM under setting [4]; 5.04 µM under setting [5]; 3.21 µM under setting [6]. Besides, the viability, T/C was 99.3% under setting [7]; 87.8% under setting [8]; 108% under setting [9]; 79.2% under setting [10]; 103% under setting [11]; 46.3% under setting [12]. In addition, the viability, T/C under setting [13] is 99%; the viability, T/C under setting [14] is 89.1%; the viability, T/C under setting [15] was 98.5%; the viability, T/C under setting [16] is 70.7%; the viability, T/C under setting [17] is 87.8%; the viability, T/C under setting [18] is 47%. Moreover, the viability, T/C under setting [19] was 80.3%; the viability, T/C under setting [20] was 90.2%; the viability, T/C under setting [21] is 102%; the viability, T/C under setting [22] is 97.3%; the viability, T/C under setting [23] is 98.7%; the viability, T/C under setting [24] was 43%. The viability, T/C is 83.2% under setting [25]; 82.8% under setting [26]; 97.7% under setting [27]; 91.3% under setting [28]; 74.2% under setting [29]; 38.9% under setting [30]. For the same compound, the viability, T/C runs as follows: under setting [31], 69.3%; under setting [32], 79.3%; under setting [33], 66.9%; under setting [34], 70.9%; under setting [35], 55.8%; under setting [36], 41.4%. Besides, the viability, T/C under setting [37] is 48.5%; the viability, T/C under setting [38] was 55.1%; the viability, T/C under setting [39] was 69.4%; the viability, T/C under setting [40] was 51.5%; the viability, T/C under setting [41] is 49.1%; the viability, T/C under setting [42] is 35.5%.
Take `CC(C)NCC(C(=O)N1CCN(c2ncnc3c2C(C)CC3O)CC1)c1ccc(Cl)cc1` (stereo unspecified) + CC(Nc1ccc2c(c1)OCCn1cc(N3C(=O)OCC3C(F)F)nc1-2)C(N)=O: the concentration for half-maximal inhibition (IC50) under setting [1] turned out to be 8.76 µM; the 50% inhibitory concentration (IC50) under setting [2] was over 10 µM; the half-inhibitory concentration (IC50) under setting [3] was over 10 µM; the half-inhibitory concentration (IC50) under setting [4] worked out at 3.89 µM; the IC50 under setting [5] was determined as 2.42 µM; the IC50 under setting [6] stood at 0.0626 µM. Also, the viability, T/C was 109% under setting [7]; 96.1% under setting [8]; 82.7% under setting [9]; 80.5% under setting [10]; 60.5% under setting [11]; 48% under setting [12]. Also, the viability, T/C was 94.5% under setting [13]; 94.2% under setting [14]; 91% under setting [15]; 73.6% under setting [16]; 66.6% under setting [17]; 59% under setting [18]. The viability, T/C by setting is: under setting [19], 102%; under setting [20], 95.5%; under setting [21], 84.7%; under setting [22], 68.5%; under setting [23], 53.7%; under setting [24], 51.6%. Besides, the viability, T/C was 94.1% under setting [25]; 81.2% under setting [26]; 75.7% under setting [27]; 59.3% under setting [28]; 51.8% under setting [29]; 43.6% under setting [30]. For the same compound, the viability, T/C is 63.2% under setting [31]; 64% under setting [32]; 56.7% under setting [33]; 53.5% under setting [34]; 50.1% under setting [35]; 41.6% under setting [36]. The viability, T/C is 51.7% under setting [37]; 46.8% under setting [38]; 52.2% under setting [39]; 41.4% under setting [40]; 42.3% under setting [41]; 44.3% under setting [42].
For the compound `Cn1ncnc1[C@H]1c2n[nH]c(=O)c3cc(F)cc(c23)N[C@@H]1c1ccc(F)cc1`, the viability, T/C (compound 0.000316 µM) was 103% [middle of 4 runs]; the viability, T/C (compound 0.001 µM) is 98.3% [middle of 4 runs]; the viability, T/C (compound 0.01 µM) is 109% [middle of 4 runs]; the viability, T/C (compound 0.0316 µM) is 101% [middle of 4 runs]. In addition, the IC50 (curve of compound) was over 0.1 µM.
Take `CC(Cn1ccc(-c2ccc(C#N)c(Cl)c2)n1)NC(=O)c1cc(C(C)O)[nH]n1` (stereo unspecified): the viability, T/C was 100% [middle of 4 runs] (compound 0.0316 µM); 107% [middle of 4 runs] (compound 0.1 µM); 92.3% [middle of 4 runs] (compound 0.316 µM); 95.2% [middle of 4 runs] (compound 1 µM); 89.8% [middle of 4 runs] (compound 3.16 µM); 58.7% [middle of 4 runs] (compound 10 µM). In addition, for the setting “curve of compound”, the half-inhibitory concentration (IC50) is over 10 µM.

Source of the values: PubChem BioAssay AID1963959 (Molecular Pharmacology Branch, DTP, NCI, 2024).
